Data published in ChEMBL document CHEMBL3217756, “Biological and computational evaluation of an oxadiazole derivative (MD77) as a new lead for direct STAT3 inhibitors” (Medchemcomm, 2012).
pIC50: −log10 of the molar value.

What was measured:
[1] = target: Signal transducer and activator of transcription 3 (Homo sapiens, UniProt P40763); assay: Inhibition of SH2 domain of STAT3 (unknown origin) using (FITC)-GpYLPQTV as substrate at 30 uM preincubated for 15 mins before substrate addition measured after 90 mins by alphascreen based assay
[2] = target: Signal transducer and activator of transcription 1-alpha/beta (Homo sapiens) (UniProt P42224); assay: Inhibition of SH2 domain of STAT1 (unknown origin) using FITC-GpYDKPHVL as substrate at 30 uM preincubated for 15 mins before substrate addition measured after 90 mins by alphascreen based assay
[3] = target: Growth factor receptor-bound protein 2 (Homo sapiens, UniProt P62993); assay: Inhibition of SH2 domain of GRB2 (unknown origin) using FITC-PSpYVNVQN as substrate preincubated for 15 mins before substrate addition measured after 90 mins by alphascreen based assay
CCRF-CEM = assay: Cytotoxicity against human CCRF-CEM cells after 48 hrs by sulforhodamine B assay; type: functional
MOLT-4 = assay: Cytotoxicity against human MOLT4 cells after 48 hrs by sulforhodamine B assay; type: functional; conditions: MOLT-4, 48 h
HOP-62 = assay: Cytotoxicity against human HOP62 cells after 48 hrs by sulforhodamine B assay; type: functional; conditions: HOP-62, 48 h
NCI-H23 = assay: Cytotoxicity against human NCI-H23 cells after 48 hrs by sulforhodamine B assay; type: functional; conditions: NCI-H23, 48 h
COLO 205 = assay: Cytotoxicity against human COLO205 cells after 48 hrs by sulforhodamine B assay; type: functional; conditions: COLO 205, 48 h
[4] = Cytotoxicity against human HCT15 cells after 48 hrs by sulforhodamine B assay; type: functional; conditions: HCT-15, 48 h
HT-29 = assay: Cytotoxicity against human HT-29 cells after 48 hrs by sulforhodamine B assay; type: functional; conditions: HT-29, 48 h
SW-620 = assay: Cytotoxicity against human SW620 cells after 48 hrs by sulforhodamine B assay; type: functional; conditions: SW-620, 48 h
SF-268 = assay: Cytotoxicity against human SF268 cells after 48 hrs by sulforhodamine B assay; type: functional; conditions: SF-268, 48 h
SF-539 = assay: Cytotoxicity against human SF539 cells after 48 hrs by sulforhodamine B assay; type: functional; conditions: SF-539, 48 h
SNB-75 = assay: Cytotoxicity against human SNB75 cells after 48 hrs by sulforhodamine B assay; type: functional; conditions: SNB-75, 48 h
Malme-3M = assay: Cytotoxicity against human MALME-3M cells after 48 hrs by sulforhodamine B assay; type: functional
SK-MEL-28 = assay: Cytotoxicity against human SK-MEL-28 cells after 48 hrs by sulforhodamine B assay; type: functional; conditions: SK-MEL-28, 48 h
[5] = Cytotoxicity against human OVCAR3 cells after 48 hrs by sulforhodamine B assay; type: functional; conditions: OVCAR-3, 48 h
[6] = Cytotoxicity against human OVCAR8 cells after 48 hrs by sulforhodamine B assay; type: functional; conditions: OVCAR-8, 48 h
RXF 393 = assay: Cytotoxicity against human RXF393 cells after 48 hrs by sulforhodamine B assay; type: functional; conditions: RXF 393, 48 h
DU-145 = assay: Cytotoxicity against human DU145 cells after 48 hrs by sulforhodamine B assay; type: functional; conditions: DU-145, 48 h
MDA-MB-231 = assay: Cytotoxicity against human MDA-MB-231 cells after 48 hrs by sulforhodamine B assay; type: functional; conditions: MDA-MB-231, 48 h
[7] = read-out: LC50 (the source's name)
[8] = read-out: pLC50 (the source's name) (converted)

Chain of Growth factor receptor-bound protein 2 (P62993 whole entry, the tested form may be a part): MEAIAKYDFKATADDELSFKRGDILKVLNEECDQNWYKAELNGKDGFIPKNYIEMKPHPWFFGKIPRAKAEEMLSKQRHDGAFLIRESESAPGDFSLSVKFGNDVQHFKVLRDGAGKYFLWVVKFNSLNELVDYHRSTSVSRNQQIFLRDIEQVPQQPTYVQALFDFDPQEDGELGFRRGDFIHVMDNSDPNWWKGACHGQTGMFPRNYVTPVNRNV
Chain of Signal transducer and activator of transcription 3 (P40763 whole entry, the tested form may be a part): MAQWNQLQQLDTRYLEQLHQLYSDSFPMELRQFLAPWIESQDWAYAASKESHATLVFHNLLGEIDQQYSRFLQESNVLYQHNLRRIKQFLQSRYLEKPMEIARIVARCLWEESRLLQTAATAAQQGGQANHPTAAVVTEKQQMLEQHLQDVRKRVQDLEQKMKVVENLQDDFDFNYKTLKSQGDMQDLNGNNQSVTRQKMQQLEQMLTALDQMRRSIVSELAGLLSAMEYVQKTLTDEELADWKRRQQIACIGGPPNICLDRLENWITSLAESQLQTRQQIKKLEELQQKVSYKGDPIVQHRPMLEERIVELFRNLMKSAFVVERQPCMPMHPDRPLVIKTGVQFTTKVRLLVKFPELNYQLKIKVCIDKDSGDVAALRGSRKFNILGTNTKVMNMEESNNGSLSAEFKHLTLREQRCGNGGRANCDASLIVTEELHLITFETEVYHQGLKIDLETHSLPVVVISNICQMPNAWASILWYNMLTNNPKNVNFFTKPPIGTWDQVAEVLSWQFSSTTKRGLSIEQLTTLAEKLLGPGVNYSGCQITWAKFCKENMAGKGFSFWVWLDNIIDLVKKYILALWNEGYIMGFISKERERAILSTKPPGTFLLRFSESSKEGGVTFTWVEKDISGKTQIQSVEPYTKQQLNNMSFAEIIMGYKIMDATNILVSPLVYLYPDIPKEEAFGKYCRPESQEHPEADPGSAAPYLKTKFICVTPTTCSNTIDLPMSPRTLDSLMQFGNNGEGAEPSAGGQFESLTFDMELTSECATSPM
Chain of Signal transducer and activator of transcription 1-alpha/beta (Homo sapiens) (P42224 whole entry, the tested form may be a part): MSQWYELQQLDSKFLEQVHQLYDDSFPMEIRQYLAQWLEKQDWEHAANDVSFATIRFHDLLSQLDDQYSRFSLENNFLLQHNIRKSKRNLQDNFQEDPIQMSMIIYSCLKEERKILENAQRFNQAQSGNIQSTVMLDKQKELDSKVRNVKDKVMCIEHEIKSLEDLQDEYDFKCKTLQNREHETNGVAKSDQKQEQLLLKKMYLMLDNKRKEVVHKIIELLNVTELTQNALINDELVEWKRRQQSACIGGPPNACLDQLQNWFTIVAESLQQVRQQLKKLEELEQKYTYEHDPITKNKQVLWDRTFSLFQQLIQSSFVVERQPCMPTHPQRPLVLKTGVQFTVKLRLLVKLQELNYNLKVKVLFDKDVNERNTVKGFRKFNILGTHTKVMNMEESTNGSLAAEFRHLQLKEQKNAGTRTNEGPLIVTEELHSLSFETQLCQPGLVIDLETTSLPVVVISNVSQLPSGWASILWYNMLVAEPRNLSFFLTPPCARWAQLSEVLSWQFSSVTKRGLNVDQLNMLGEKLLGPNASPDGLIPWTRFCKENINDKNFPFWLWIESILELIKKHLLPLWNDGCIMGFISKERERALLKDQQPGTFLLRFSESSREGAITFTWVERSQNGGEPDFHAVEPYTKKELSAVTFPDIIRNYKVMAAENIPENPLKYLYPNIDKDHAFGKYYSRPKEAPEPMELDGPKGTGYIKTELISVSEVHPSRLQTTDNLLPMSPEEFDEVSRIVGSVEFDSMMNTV

O=C(Nc1nonc1-c1ccc(Cl)cc1)c1ccc(C(F)(F)F)cc1
inhibition [1]: 72% | inhibition [2]: 94.6% | pIC50 [3]: < 4.00 | GI50 (CCRF-CEM; read-out: GI50): 0.842 µM | CC50 (CCRF-CEM; [7]): > 100 µM | TGI (CCRF-CEM; read-out: TGI): 10.7 µM | GI50 (CCRF-CEM; read-out: pGI50 (converted)): 0.851 µM | CC50 (CCRF-CEM; [8]): > 100 µM | TGI (CCRF-CEM; read-out: pTGI (converted)): 10.7 µM | GI50 (MOLT-4; read-out: GI50): 1.67 µM | CC50 (MOLT-4; [7]): > 100 µM | TGI (MOLT-4; read-out: TGI): 6.05 µM | GI50 (MOLT-4; read-out: pGI50 (converted)): 1.66 µM | CC50 (MOLT-4; [8]): > 100 µM | TGI (MOLT-4; read-out: pTGI (converted)): 6.03 µM | GI50 (HOP-62; read-out: GI50): 2.93 µM | CC50 (HOP-62; [7]): > 100 µM | TGI (HOP-62; read-out: TGI): 8.74 µM | GI50 (HOP-62; read-out: pGI50 (converted)): 2.95 µM | CC50 (HOP-62; [8]): > 100 µM | TGI (HOP-62; read-out: pTGI (converted)): 8.71 µM | GI50 (NCI-H23; read-out: GI50): 1.89 µM | CC50 (NCI-H23; [7]): > 100 µM | TGI (NCI-H23; read-out: TGI): 7.94 µM | GI50 (NCI-H23; read-out: pGI50 (converted)): 1.91 µM | CC50 (NCI-H23; [8]): > 100 µM | TGI (NCI-H23; read-out: pTGI (converted)): 7.94 µM | GI50 (COLO 205; read-out: GI50): 3.8 µM | CC50 (COLO 205; [7]): 41.3 µM | TGI (COLO 205; read-out: TGI): 12 µM | GI50 (COLO 205; read-out: pGI50 (converted)): 3.8 µM | CC50 (COLO 205; [8]): 41.7 µM | TGI (COLO 205; read-out: pTGI (converted)): 12 µM | GI50 ([4]; read-out: GI50): 3.5 µM | CC50 [4, 7]: > 100 µM | TGI ([4]; read-out: TGI): > 100 µM | GI50 ([4]; read-out: pGI50 (converted)): 3.47 µM | CC50 [4, 8]: > 100 µM | TGI ([4]; read-out: pTGI): > 100 µM | GI50 (HT-29; read-out: GI50): 3.23 µM | CC50 (HT-29; [7]): > 100 µM | TGI (HT-29; read-out: TGI): > 100 µM | GI50 (HT-29; read-out: pGI50 (converted)): 3.24 µM | CC50 (HT-29; [8]): > 100 µM | TGI (HT-29; read-out: pTGI): > 100 µM | GI50 (SW-620; read-out: GI50): 2.82 µM | CC50 (SW-620; [7]): > 100 µM | TGI (SW-620; read-out: TGI): > 100 µM | GI50 (SW-620; read-out: pGI50 (converted)): 2.82 µM | CC50 (SW-620; [8]): > 100 µM | TGI (SW-620; read-out: pTGI): > 100 µM | GI50 (SF-268; read-out: GI50): 1.81 µM | LC50 (SF-268; read-out: LC50): > 100 µM | TGI (SF-268; read-out: TGI): > 100 µM | GI50 (SF-268; read-out: pGI50 (converted)): 1.82 µM | LC50 (SF-268; read-out: pLC50 (converted)): > 100 µM | TGI (SF-268; read-out: pTGI): > 100 µM | GI50 (SF-539; read-out: GI50): 3.68 µM | CC50 (SF-539; [7]): > 100 µM | TGI (SF-539; read-out: TGI): 17.1 µM | GI50 (SF-539; read-out: pGI50 (converted)): 3.72 µM | CC50 (SF-539; [8]): > 100 µM | TGI (SF-539; read-out: pTGI (converted)): 17 µM | GI50 (SNB-75; read-out: GI50): 1.79 µM | CC50 (SNB-75; [7]): > 100 µM | TGI (SNB-75; read-out: TGI): 7.54 µM | GI50 (SNB-75; read-out: pGI50 (converted)): 1.78 µM | CC50 (SNB-75; [8]): > 100 µM | TGI (SNB-75; read-out: pTGI (converted)): 7.59 µM | GI50 (Malme-3M; read-out: GI50): 1.52 µM | LC50 (Malme-3M; read-out: LC50): > 100 µM | TGI (Malme-3M; read-out: TGI): 21.8 µM | GI50 (Malme-3M; read-out: pGI50 (converted)): 1.51 µM | LC50 (Malme-3M; read-out: pLC50 (converted)): > 100 µM | TGI (Malme-3M; read-out: pTGI (converted)): 21.9 µM | GI50 (SK-MEL-28; read-out: GI50): 4.25 µM | LC50 (SK-MEL-28; read-out: LC50): > 100 µM | TGI (SK-MEL-28; read-out: TGI): > 100 µM | GI50 (SK-MEL-28; read-out: pGI50 (converted)): 4.27 µM | LC50 (SK-MEL-28; read-out: pLC50 (converted)): > 100 µM | TGI (SK-MEL-28; read-out: pTGI): > 100 µM | GI50 ([5]; read-out: GI50): 2.18 µM | CC50 [5, 7]: > 100 µM | TGI ([5]; read-out: TGI): 7.9 µM | GI50 ([5]; read-out: pGI50 (converted)): 2.19 µM | CC50 [5, 8]: > 100 µM | TGI ([5]; read-out: pTGI (converted)): 7.94 µM | GI50 ([6]; read-out: GI50): 2.87 µM | CC50 [6, 7]: > 100 µM | TGI ([6]; read-out: TGI): > 100 µM | GI50 ([6]; read-out: pGI50 (converted)): 2.88 µM | CC50 [6, 8]: > 100 µM | TGI ([6]; read-out: pTGI): > 100 µM | GI50 (RXF 393; read-out: GI50): 2.21 µM | CC50 (RXF 393; [7]): > 100 µM | TGI (RXF 393; read-out: TGI): 6.07 µM | GI50 (RXF 393; read-out: pGI50 (converted)): 2.24 µM | CC50 (RXF 393; [8]): > 100 µM | TGI (RXF 393; read-out: pTGI (converted)): 6.03 µM | GI50 (DU-145; read-out: GI50): 3.48 µM | CC50 (DU-145; [7]): > 100 µM | TGI (DU-145; read-out: TGI): > 100 µM | GI50 (DU-145; read-out: pGI50 (converted)): 3.47 µM | CC50 (DU-145; [8]): > 100 µM | TGI (DU-145; read-out: pTGI): > 100 µM | GI50 (MDA-MB-231; read-out: GI50): 2.79 µM | LC50 (MDA-MB-231; read-out: LC50): > 100 µM | TGI (MDA-MB-231; read-out: TGI): 7.59 µM | GI50 (MDA-MB-231; read-out: pGI50 (converted)): 2.82 µM | LC50 (MDA-MB-231; read-out: pLC50 (converted)): > 100 µM | TGI (MDA-MB-231; read-out: pTGI (converted)): 7.59 µM
